From US9988635B2, “Modulation of growth hormone receptor expression and insulin-like growth factor expression” (Antisense Therapeutics Limited, priority 2003, dated 2018)
Counter-ions that a name gives are not always drawn. In the oligonucleotide strings, read from the 5' end, every base follows the letter of its sugar. An asterisk marks phosphorothioate; unmarked linkages are phosphodiester. Other units and linkages are bracketed, terminal groups are in braces. A string of capitals states the bases alone. e = 2'-O-(2-methoxyethyl) (MOE); [5mC] = 5-methylcytosine; d = 2'-deoxy (DNA)

Experiments:
serum IGF-I = assay: Serum IGF-I, 2 week study in mice; format: in vivo, mouse; conditions: 30 mg/kg; 2 weeks
Experimental: A two-week study was done in similar fashion to the one-week study in Example 18, this time using ISIS 227446 at doses of 3, 5, 10, 20 and 30 mg/kg. The mismatch control was given at the same doses. Mice were treated with antisense compound or saline every other day for 14 days.
P-values were determined by t-test.

[1] = dosed orally; cited from earlier work
[2] = Body weight, body length, organ weights and food intake, 1 week pilot study; format: in vivo, mouse; conditions: octreotide group
Experimental: Saline, antisense, mismatch control and octreotide samples were prepared, and coded for blinding. Animals were given a subcutaneous dose of saline every second day, and mismatch control or antisense with administration on days 0, 2, 4, 6. Animals were given twice daily doses of 25 μg octreotide. Animals were housed 4 per cage, for the duration of one week. They had access to a pre-determined quantity of standard mouse food and water at all times throughout the experiment. They were housed in a quiet, temperature- and humidity-maintained environment for the entirety of the study. At day 0 and before treatment on each day or second day, the animals had their body weight and food intake measured, enabling the correct dose of agent to be administered. The animals were monitored closely for any changes in fur, skin, eye, locomotion or other changes in behavior. No problems were observed. Every second day from day −7 to day 7 body weight and food intake were measured.
The serum remaining following the insulin-like growth factor-1 assay was isolated and stored at −80° C. The whole liver was removed rapidly for weighing and snap-frozen in labelled aluminum parcels by submersion in liquid-nitrogen. […]
This confirms published results of others. […] Weight was measured in two ways: weight trend (live animal), and final carcass weight. […]

[3] = test system: mouse growth hormone receptor mRNA; assay: Inhibition of mouse growth hormone receptor mRNA levels in b.END cells, quantitative real-time PCR, incl. dose-response; format: cell-based; conditions: averages from three experiments
Experimental: The mouse brain endothelial cell line b.END was obtained from Dr. Werner Risau at the Max Plank Instititute (Bad Nauheim, Germany). b.END cells were routinely cultured in DMEM, high glucose (Gibco/Life Technologies, Gaithersburg, Md.) supplemented with 10% fetal calf serum (Gibco/Life Technologies, Gaithersburg, Md.). Cells were routinely passaged by trypsinization and dilution when they reached 90% confluence. Cells were seeded into 96-well plates (Falcon-Primaria #3872) at a density of 3000 cells/well for use in RT-PCR analysis.
When cells reached 65-75% confluency, they were treated with oligonucleotide. For cells grown in 96-well plates, wells were washed once with 100 μL OPTI-MEM™-1 reduced-serum medium (Invitrogen Corporation, Carlsbad, Calif.) and then treated with 130 μL of OPTI-MEM™-1 containing 3.75 μg/mL LIPOFECTIN™ (Invitrogen Corporation, Carlsbad, Calif.) and the desired concentration of oligonucleotide. Cells are treated and data are obtained in triplicate. After 4-7 hours of treatment at 37° C., the medium was replaced with fresh medium. Cells were harvested 16-24 hours after oligonucleotide treatment.
Total RNA was isolated using an RNEASY 96™ kit and buffers purchased from Qiagen Inc. (Valencia, Calif.) following the manufacturer's recommended procedures. Briefly, for cells grown on 96-well plates, growth medium was removed from the cells and each well was washed with 200 μL cold PBS. 150 μL Buffer RLT was added to each well and the plate vigorously agitated for 20 seconds. 150 μL of 70% ethanol was then added to each well and the contents mixed by pipetting three times up and down. The samples were then transferred to the RNEASY 96™ well plate attached to a QIAVAC™ manifold fitted with a waste collection tray and attached to a vacuum source. Vacuum was applied for 1 minute. 500 μL of Buffer RW1 was added to each well of the RNEASY 96™ plate and incubated for 15 minutes and the vacuum was again applied for 1 minute. An additional 500 μL of Buffer RW1 was added to each well of the RNEASY 96™ plate and the vacuum was applied for 2 minutes. 1 mL of Buffer RPE was then added to each well of the RNEASY 96™ plate and the vacuum applied for a period of 90 seconds. The Buffer RPE wash was then repeated and the vacuum was applied for an additional 3 minutes. The plate was then removed from the QIAVAC™ manifold and blotted dry on paper towels. The plate was then re-attached to the QIAVAC™ manifold fitted with a collection tube rack containing 1.2 mL collection tubes. RNA was then eluted by pipetting 140 μL of RNAse free water into each well, incubating 1 minute, and then applying the vacuum for 3 minutes.
Quantitation of growth hormone receptor mRNA levels was accomplished by real-time quantitative PCR using the ABI PRISM™ 7600, 7700, or 7900 Sequence Detection System (PE-Applied Biosystems, Foster City, Calif.) according to manufacturer's instructions. This is a closed-tube, non-gel-based, fluorescence detection system which allows high-throughput quantitation of polymerase chain reaction (PCR) products in real-time. As opposed to standard PCR in which amplification products are quantitated after the PCR is completed, products in real-time quantitative PCR are quantitated as they accumulate. This is accomplished by including in the PCR reaction an oligonucleotide probe that anneals specifically between the forward and reverse PCR primers, and contains two fluorescent dyes. A reporter dye (e.g., FAM or JOE, obtained from either PE-Applied Biosystems, Foster City, Calif., Operon Technologies Inc., Alameda, Calif. or Integrated DNA Technologies Inc., Coralville, Iowa) is attached to the 5′ end of the probe and a quencher dye (e.g., TAMRA, obtained from either PE-Applied Biosystems, Foster City, Calif., Operon Technologies Inc., Alameda, Calif. or Integrated DNA Technologies Inc., Coralville, Iowa) is attached to the 3′ end of the probe. […]

Compound | % INHIB of mouse growth hormone receptor mRNA levels [3] [%] | also measured
TTACCGTATGGTTCCTCACT (chemistry not given here) [ISIS 260120, unrelated negative control oligonucleotide, reference compound] |  | effect on serum IGF-I at 30 mg/kg as observed with the mismatch oligonucleotide (serum IGF-I): not observed
CC(C)C[C@H]1C(=O)N2CCC[C@H]2[C@]2(O)O[C@](NC(=O)[C@@H]3C=C4c5cccc6[nH]c(Br)c(c56)C[C@H]4N(C)C3)(C(C)C)C(=O)N12 [bromocriptine mesylate] |  | reduce growth hormone production and associated IGF-I sufficiently, % of cases [1]: 10%
C[C@@H](O)[C@@H]1NC(=O)[C@H](CCCCN)NC(=O)[C@@H](Cc2c[nH]c3ccccc23)NC(=O)[C@H](Cc2ccccc2)NC(=O)[C@@H](NC(=O)[C@H](N)Cc2ccccc2)CSSC[C@@H](C(=O)N[C@H](CO)[C@@H](C)O)NC1=O [Octreotide, octreotide, reference compound] |  | liver weight (g/total body weight) [2]: slight increase
227462 (antisense eG*e[5mC]*eT*eT*eT*dG*dA*dA*dA*dA*dT*dA*dT*dA*dA*e[5mC]*eT*eA*e[5mC]*eA) [compound 227462] | 31 | 
227471 (antisense eA*eG*eG*e[5mC]*eA*d[5mC]*dA*dA*dG*dA*dG*dA*dT*d[5mC]*dA*eG*e[5mC]*eT*eT*e[5mC]) [compound 227471] | 52 | 
227512 (antisense eT*eA*eA*e[5mC]*e[5mC]*dT*dA*dT*dG*dG*dT*dG*dA*d[5mC]*dT*eA*eT*eG*eT*e[5mC]) [compound 227512] | 36 | 
227497 (antisense eT*eA*eA*eA*eT*dG*dT*dT*dT*dT*dG*d[5mC]*dA*dT*dA*eT*e[5mC]*e[5mC]*eA*eA) [compound 227497] | 77 | 
227474 (antisense eT*eG*eT*e[5mC]*eG*d[5mC]*dT*dT*dA*d[5mC]*dT*dT*dG*dG*dG*e[5mC]*eA*eT*eA*eA) [compound 227474] | 68 | 
227494 (antisense e[5mC]*eA*eA*eA*eA*dG*d[5mC]*d[5mC]*dA*d[5mC]*d[5mC]*dT*dG*dA*dT*eT*eG*eT*eT*eT) [compound 227494] | 56 | 
227513 (antisense eT*eA*e[5mC]*e[5mC]*eT*dG*dA*dG*dA*d[5mC]*d[5mC]*dT*dG*d[5mC]*dA*eA*eG*eA*e[5mC]*eA) [compound 227513] | 40 | 
227447 (antisense eG*e[5mC]*eT*eG*eG*dT*dG*dT*dA*dG*d[5mC]*d[5mC]*dT*d[5mC]*dA*e[5mC]*eT*eT*e[5mC]*e[5mC]) [compound 227447] | 77 | 
227465 (antisense eT*eG*eA*eG*eA*dA*dG*dA*dT*d[5mC]*dT*dG*dG*dA*dT*e[5mC]*eA*eA*eT*e[5mC]) [compound 227465] | 51 | 
227519 (antisense eT*e[5mC]*eA*e[5mC]*eA*d[5mC]*d[5mC]*dT*dA*d[5mC]*d[5mC]*dT*dT*dT*dG*e[5mC]*eT*eG*e[5mC]*eT) [compound 227519] | 44 | 
227486 (antisense e[5mC]*eG*eG*eT*eG*dT*dG*dA*dA*d[5mC]*d[5mC]*dG*dT*dG*dG*eT*eG*eT*eA*eG) [compound 227486] | 39 | 
227455 (antisense eA*eG*eT*eA*eG*dG*dG*dT*dA*dT*d[5mC]*d[5mC]*dA*dA*dA*eT*eG*eG*eA*eG) [compound 227455] | 43 | 
227473 (antisense eA*eA*eG*eT*e[5mC]*dA*dA*dT*dG*dT*dT*dT*dG*d[5mC]*d[5mC]*eA*eG*eT*eG*eA) [compound 227473] | 71 | 
227498 (antisense eT*eT*eG*eT*eA*dA*dA*dA*dA*dT*d[5mC]*dT*dA*dA*d[5mC]*eT*eT*eG*eT*eT) [compound 227498] | 49 | 
227516 (antisense eT*eT*eG*eG*e[5mC]*dT*dT*dT*d[5mC]*d[5mC]*d[5mC]*dT*dG*dG*dA*eG*eG*eT*eT*e[5mC]) [compound 227516] | 57 | 
227457 (antisense eG*eA*eA*eT*eT*dA*dT*d[5mC]*d[5mC]*dA*dT*d[5mC]*d[5mC]*d[5mC]*dT*eT*e[5mC]*eA*eG*eA) [compound 227457] | 67 | 
227505 (antisense eT*eA*e[5mC]*e[5mC]*eT*dG*dA*dG*dA*d[5mC]*d[5mC]*d[5mC]*dA*d[5mC]*dA*eA*eG*e[5mC]*eG*eG) [compound 227505] | 39 | 
227448 (antisense eT*eT*eT*eG*e[5mC]*d[5mC]*dA*dA*dG*dA*dG*dT*dA*dG*d[5mC]*eT*eG*eG*eT*eG) [compound 227448] | 60 | 
227511 (antisense e[5mC]*e[5mC]*eA*e[5mC]*eG*d[5mC]*dA*d[5mC]*d[5mC]*d[5mC]*dA*d[5mC]*dA*dA*dG*e[5mC]*eG*eG*eA*eT) [compound 227511] | 71 | 
C=CCN1C[C@H](C(=O)N(CCCN(C)C)C(=O)NCC)C[C@@H]2c3cccc4[nH]cc(c34)C[C@H]21 [cabergoline] |  | reduce growth hormone production and associated IGF-I sufficiently, % of cases [1]: 10%
227479 (antisense eA*eT*eG*eT*e[5mC]*d[5mC]*dT*d[5mC]*dT*dT*dG*dG*dT*dT*dA*eA*eA*eG*e[5mC]*eT) [compound 227479] | 59 | 
227466 (antisense eT*eT*eG*eT*eA*dG*dT*dT*dA*dT*d[5mC]*dA*dT*dG*dA*eA*eT*eG*e[5mC]*e[5mC]) [compound 227466] | 50 | 
